The target in assay [1] is T1, NHE3 (Homo sapiens, UniProt P48764).
T1 construct: expressed in transfected cells
T1 sequence (P48764 26-834): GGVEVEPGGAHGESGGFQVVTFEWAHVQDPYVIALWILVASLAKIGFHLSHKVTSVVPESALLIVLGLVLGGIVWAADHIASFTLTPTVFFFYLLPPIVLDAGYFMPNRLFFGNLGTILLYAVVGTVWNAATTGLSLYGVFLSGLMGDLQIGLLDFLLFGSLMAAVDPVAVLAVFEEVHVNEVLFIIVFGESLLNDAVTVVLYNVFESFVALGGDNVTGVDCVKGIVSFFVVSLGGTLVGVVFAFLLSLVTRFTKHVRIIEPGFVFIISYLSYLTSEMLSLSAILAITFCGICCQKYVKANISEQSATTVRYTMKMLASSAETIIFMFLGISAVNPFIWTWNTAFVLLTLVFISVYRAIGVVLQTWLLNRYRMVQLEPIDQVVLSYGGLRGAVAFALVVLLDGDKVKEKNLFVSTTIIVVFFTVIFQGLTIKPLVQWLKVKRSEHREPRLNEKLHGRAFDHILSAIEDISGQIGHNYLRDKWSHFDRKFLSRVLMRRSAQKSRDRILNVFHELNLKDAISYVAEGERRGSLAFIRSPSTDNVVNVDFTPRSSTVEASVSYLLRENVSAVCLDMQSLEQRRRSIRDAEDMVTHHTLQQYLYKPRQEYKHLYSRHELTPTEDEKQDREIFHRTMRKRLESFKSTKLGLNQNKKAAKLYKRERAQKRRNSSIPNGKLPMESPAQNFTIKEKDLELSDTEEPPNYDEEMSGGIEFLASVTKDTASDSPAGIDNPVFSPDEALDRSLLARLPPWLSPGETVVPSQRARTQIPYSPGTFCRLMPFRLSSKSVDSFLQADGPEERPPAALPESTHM
T1 sequence (Q99653 2-195 partner limits assumed): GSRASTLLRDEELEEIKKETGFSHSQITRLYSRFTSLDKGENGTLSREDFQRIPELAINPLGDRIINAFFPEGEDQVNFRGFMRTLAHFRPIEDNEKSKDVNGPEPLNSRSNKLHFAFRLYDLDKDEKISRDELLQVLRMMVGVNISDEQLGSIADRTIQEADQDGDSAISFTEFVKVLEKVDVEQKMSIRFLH
Briefly: Cell-based assay of NHE-3 activity (pre-incubation inhibition), human. The note with it: human Preincubation. The essentials:
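PS120 fibroblasts stably expressing human NHE3 and NHERF2, loaded 30 min at 37 °C with 5 μM BCECF-AM in NH4Cl buffer, then acidified 10 min at room temperature in Na+-free buffer with 0–30 μM compound. Initial rate of BCECF fluorescence ratio change (FLIPR) per minute taken as Na+/H+ activity.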

For assay [2], the target named is T1, NHE3. Kind of assay: Cell-based assay of NHE-3 activity (persistent inhibition), human. The note with it: human Persistence, 60 min incubation then washout. Put shortly: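 PS120 fibroblasts expressing human NHE3 with NHERF2 exposed to 0-30 μM compound for 60 min at RT, then washed out; cells acid-loaded by NH4Cl prepulse with BCECF-AM and Na+-free buffer. Na+-driven pH recovery started 10 min post-washout; initial rate of BCECF ratio change (FLIPR) taken as activity.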

As usually defined, the IC50 is the concentration needed to halve the response being measured. A lower IC50 goes with greater potency in that assay.

SMILES strings stand for the structures. A value given as a limit tells only on which side of the number the result lay.

Consider `Cc1cc(S(=O)(=O)NCCCCCCCCNC(=O)NCCCCNC(=O)NCCCCCCCCNS(=O)(=O)c2ccc(O[C@H]3c4cc(Cl)cc(Cl)c4C[C@@H]3N3CCC[C@@H](N)C3)c(C)c2)ccc1O[C@H]1c2cc(Cl)cc(Cl)c2C[C@@H]1N1CCC[C@@H](N)C1` [Example 63, 3-[8-[(4-[[(1S,2S)-2-[(3R)-3-Aminopiperidin-1-yl]-4,6-dichloro-2,3-dihydro-1H-inden-1-yl]oxy]-3-methylbenzene)sulfonamido]octyl]-1-[4-[([8-[(4-[[(1S,2S)-2-[(3R)-3-aminopiperidin-1-yl]-4,6-dichloro-2,3-dihydro-1H-inden-1-yl]oxy]-3-methylbenzene)sulfonamide]octyl]carbamoyl)amino]butyl]urea], for which the “% inhibition” value on NHE3 [1] and at NHE3 [2] was “B (40-70%)” each time. In addition, the pIC50 entry at NHE3 [1] (0-30 μM test compound) is reported as “C (NHE3 pIC50 > 7)”. Also, at NHE3 [2], the IC50 is 100 to 1000 nM.
In the case of `NC1CCCN(C2Cc3c(Cl)cc(Cl)cc3C2Oc2ccc(S(=O)(=O)NCCOCCOCCn3cc(CNC(=O)C(O)C(O)C(O)C(O)C(=O)NCc4cn(CCOCCOCCNS(=O)(=O)c5ccc(OC6c7cc(Cl)cc(Cl)c7CC6N6CCCC(N)C6)cc5)nn4)nn3)cc2)C1` [Example 57, (2R,3S,4R,5S)—N^1,N^6-Bis([1-[2-(2-[2-[(4-[[(1S,2S)-2-[(3R)-3-aminopiperidin-1-yl]-4,6-dichloro-2,3-dihydro-1H-inden-1-yl]oxy]benzene)sulfonamido]ethoxy]ethoxy)ethyl]-1H-1,2,3-triazol-4-yl]methyl)-2,3,4,5-tetrahydroxyhexanediamide], the pIC50 result against NHE3 [1] (0-30 μM test compound) and against NHE3 [2] was “C (NHE3 pIC50 > 7)” each time.
For the molecule `O=C(NCCCCNC(=O)NCCOCCOCCNS(=O)(=O)c1ccc(O[C@H]2c3cc(Cl)cc(Cl)c3C[C@@H]2N2C3CCCC2CCC3)cc1)NCCOCCOCCNS(=O)(=O)c1ccc(O[C@H]2c3cc(Cl)cc(Cl)c3C[C@@H]2N2C3CCCC2CCC3)cc1` [Example 71, 1-[2-(2-[2-[(4-[[(1S,2S)-2-[9-Azabicyclo[3.3.1]nonan-9-yl]-4,6-dichloro-2,3-dihydro-1H-inden-1-yl]oxy]benzene)sulfonamido]ethoxy]ethoxy)ethyl]-3-[4-([[2-(2-[2-[(4-[[(1S,2S)-2-[9-azabicyclo[3.3.1]nonan-9-yl]-4,6-dichloro-2,3-dihydro-1H-inden-1-yl]oxy]benzene)sulfonamido]ethoxy]ethoxy)ethyl]carbamoyl]amino)butyl]urea], the “% inhibition” value on NHE3 [1] and at NHE3 [2] was “B (40-70%)” in each case. Moreover, the pIC50 result at NHE3 [1] (0-30 μM test compound) and at NHE3 [2] was “A (NHE3 pIC50 < 6)” in each case.
For the molecule `CN(C)[C@@H]1CCCN([C@H]2Cc3c(Cl)cc(Cl)cc3[C@@H]2Oc2ccc(S(=O)(=O)NCCOCCOCCNC(=O)NCCCCNC(=O)NCCOCCOCCNS(=O)(=O)c3ccc(O[C@H]4c5cc(Cl)cc(Cl)c5C[C@@H]4N4CCC[C@@H](N(C)C)C4)cc3)cc2)C1` [Example 25], the “% inhibition” value on NHE3 [1] and on NHE3 [2] was “C (>70%)” throughout.
For the molecule `N[C@@H]1CCCN([C@H]2Cc3c(Cl)cc(Cl)cc3[C@@H]2Oc2ccc(S(=O)(=O)NCCOCCOCCn3cc(CNC(=O)NCCCCNC(=O)NCc4cn(CCOCCOCCNS(=O)(=O)c5ccc(O[C@H]6c7cc(Cl)cc(Cl)c7C[C@@H]6N6CCC[C@@H](N)C6)cc5)nn4)nn3)cc2)C1` [Example 56, 1-([1-[2-(2-[2-[(4-[[(1S,2S)-2-[(3R)-3-Aminopiperidin-1-yl]-4,6-dichloro-2,3-dihydro-1H-inden-1-yl]oxy]benzene)sulfonamido]ethoxy]ethoxy)ethyl]-1H-1,2,3-triazol-4-yl]methyl)-3-(4-[[([1-[2-(2-[2-[(4-[[(1S,2S)-2-[(3R)-3-aminopiperidin-1-yl]-4,6-dichloro-2,3-dihydro-1H-inden-1-yl]oxy]benzene)sulfonamido]ethoxy]ethoxy)ethyl]-1H-1,2,3-triazol-4-yl]methyl)carbamoyl]amino]butyl)urea], the “% inhibition” value at NHE3 [1] and at NHE3 [2] was “C (>70%)” throughout. The IC50 against NHE3 [1] (0-30 μM test compound) and against NHE3 [2] was < 100 nM in each case.
`Cc1cc(S(=O)(=O)NCCOCCOCCNC(=O)NCCCCNC(=O)NCCOCCOCCNS(=O)(=O)c2cc(C)c(O[C@H]3c4cc(Cl)cc(Cl)c4C[C@@H]3N(C)C)c(F)c2)cc(F)c1O[C@H]1c2cc(Cl)cc(Cl)c2C[C@@H]1N(C)C` [Example 84, 1-[2-(2-[2-[(4-[[(1S,2S)-4,6-Dichloro-2-(dimethylamino)-2,3-dihydro-1H-inden-1-yl]oxy]-3-fluoro-5-methylbenzene)sulfonamido]ethoxy]ethoxy)ethyl]-3-[4-([[2-(2-[2-[(4-[[(1S,2S)-4,6-dichloro-2-(dimethylamino)-2,3-dihydro-1H-inden-1-yl]oxy]-3-fluoro-5-methylbenzene)sulfonamido]ethoxy]ethoxy)ethyl]carbamoyl]amino)butyl]urea]: the “% inhibition” value at NHE3 [1] and at NHE3 [2] was “C (>70%)” throughout. The pIC50 entry against NHE3 [1] (0-30 μM test compound) and on NHE3 [2] was “C (NHE3 pIC50 > 7)” in each case.
`N#Cc1cc(Cl)cc2c1C[C@H](N1CCNCC1)[C@H]2Oc1ccc(S(=O)(=O)N[C@@H]2CCN(CCOCCNC(=O)NCCCCNC(=O)NCCOCCN3CC[C@@H](NS(=O)(=O)c4ccc(O[C@H]5c6cc(Cl)cc(C#N)c6C[C@@H]5N5CCNCC5)cc4)C3)C2)cc1` [Example 108, 4-([(1S,2S)-6-Chloro-4-cyano-2-(piperazin-1-yl)-2,3-dihydro-1H-inden-1-yl]oxy)-N—[(R)-1-(20-[(R)-3-([4-([(1S2S)-6-chloro-4-cyano-2-(piperazin-1-yl)-2,3-dihydro-1H-inden-1-yl]oxy)phenyl]sulfonamido)pyrrolidin-1-yl]-7,14-dioxo-3,18-dioxa-6,8,13,15-tetraazaicosyl)pyrrolidin-3-yl]benzenesulfonamide; tetra(trifluoroacetate)]: the “% inhibition” value at NHE3 [1] and on NHE3 [2] was “C (>70%)” each time. For the same molecule, the pIC50 entry at NHE3 [1] (0-30 μM test compound) and against NHE3 [2] was “C (NHE3 pIC50 > 7)” throughout.
Consider `N[C@@H]1CCCN([C@H]2Cc3c(Cl)cc(Cl)cc3[C@@H]2Oc2ccc(S(=O)(=O)NCCOCCOCCNC(=O)NCCCCNC(=O)NCCOCCOCCNS(=O)(=O)c3ccc(O[C@H]4c5cc(Cl)cc(Cl)c5C[C@@H]4N4CCC[C@@H](N)C4)cc3F)c(F)c2)C1` [Example 103, 1-[2-(2-[2-[(4-[[(1S,2S)-2-[(3R)-3-Aminopiperidin-1-yl]-4,6-dichloro-2,3-dihydro-1H-inden-1-yl]oxy]-2-fluorobenzene)sulfonamido]ethoxy]ethoxy)ethyl]-3-[4-([[2-(2-[2-[(4-[[(1S,2S)-2-[(3R)-3-aminopiperidin-1-yl]-4,6-dichloro-2,3-dihydro-1H-inden-1-yl]oxy]-2-fluorobenzene)sulfonamido]ethoxy]ethoxy)ethyl]carbamoyl]amino)butyl]urea], for which the “% inhibition” value on NHE3 [1] and at NHE3 [2] was “C (>70%)” each time. For the same molecule, the pIC50 result at NHE3 [1] (0-30 μM test compound) and against NHE3 [2] was “C (NHE3 pIC50 > 7)” in each case.
For `C[C@@H]1CCCCN1[C@H]1Cc2c(Cl)cc(Cl)cc2[C@@H]1Oc1ccc(S(=O)(=O)NCCOCCOCCNC(=O)NCCCCNC(=O)NCCOCCOCCNS(=O)(=O)c2ccc(O[C@H]3c4cc(Cl)cc(Cl)c4C[C@@H]3N3CCCC[C@H]3C)cc2)cc1` [Example 66, 3-[2-(2-[2-[(4-[[(1S,2S)-4,6-Dichloro-2-[(2R)-2-methylpiperidin-1-yl]-2,3-dihydro-1H-inden-1-yl]oxy]benzene)sulfonamido]ethoxy]ethoxy)ethyl]-1-[4-([[2-(2-[2-[(4-[[(1S,2S)-4,6-dichloro-2-[(2R)-2-methylpiperidin-1-yl]-2,3-dihydro-1H-inden-1-yl]oxy]benzene)sulfonamido]ethoxy]ethoxy)ethyl]carbamoyl]amino)butyl]urea], the “% inhibition” value on NHE3 [1] and on NHE3 [2] was “A (NHE3 < 40%)” throughout. Also, the pIC50 result at NHE3 [1] (0-30 μM test compound) and at NHE3 [2] was “A (NHE3 pIC50 < 6)” in each case.

The values above are taken from US11242337B2, “Compounds useful for treating gastrointestinal tract disorders” (Ardelyx, Inc., priority 2017, dated 2022).
